The source of these data is US11254663B2 (BRISTOL-MYERS SQUIBB COMPANY, priority 2019, dated 2022).

Structures are written as SMILES.

Chain of FXR (Q96RI1 262-486): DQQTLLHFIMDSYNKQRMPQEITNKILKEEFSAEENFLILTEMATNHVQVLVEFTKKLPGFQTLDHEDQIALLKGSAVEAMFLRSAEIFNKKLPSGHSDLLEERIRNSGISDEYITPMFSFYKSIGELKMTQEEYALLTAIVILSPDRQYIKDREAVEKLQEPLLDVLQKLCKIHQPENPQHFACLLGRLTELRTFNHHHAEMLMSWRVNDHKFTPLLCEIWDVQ

This test addresses FXR (Homo sapiens (Human), UniProt Q96RI1). In words: FXR EC50 (FXR agonist potency reported with each Example). The class given is cell-based.
A word on the EC50: it is the concentration needed to bring the measured effect to its halfway point. Read a high EC50 as lower potency in that assay. As to `CC(C)(O)c1coc(-c2cccc(N(CC34CCC(c5nc(C6CC6)no5)(CC3)CC4)C(=O)C3CC(F)(F)C3)c2)n1` [Example 16, N-((4-(3-cyclopropyl-1,2,4-oxadiazol-5-yl)bicyclo[2.2.2]octan-1-yl)methyl)-3,3-difluoro-N-(3-(4-(2-hydroxypropan-2-yl)oxazol-2-yl)phenyl)cyclobutane-1-carboxamide], the EC50 is 318 nM. This counts as sub-micromolar.
Under `CC(C)(O)c1coc(-c2cccc(N(CC34CCC(c5nc(C6CC6)no5)(CC3)CC4)C(=O)C3CC(C(F)F)C3)c2)n1` (stereo not drawn) [Example 17, N-((4-(3-cyclopropyl-1,2,4-oxadiazol-5-yl)bicyclo[2.2.2]octan-1-yl)methyl)-3-(difluoromethyl)-N-(3-(4-(2-hydroxypropan-2-yl)oxazol-2-yl)phenyl)cyclobutane-1-carboxamide] stands 309 nM; under `CC(C)(O)c1coc(-c2cccc(N(CC34CCC(c5nc(C6CC6)no5)(CC3)CC4)C(=O)C3CCC(F)(F)C3)c2)n1` (stereo not drawn) [Example 18, N-((4-(3-cyclopropyl-1,2,4-oxadiazol-5-yl)bicyclo[2.2.2]octan-1-yl)methyl)-3,3-difluoro-N-(3-(4-(2-hydroxypropan-2-yl)oxazol-2-yl)phenyl)cyclopentane-1-carboxamide], 154 nM.
As to `O=C(C1CCC1)N(CC12CCC(c3nc(C4CC4)no3)(CC1)CC2)c1cccc(-c2cnc(C3CC3)o2)c1` [Example 20, N-((4-(3-cyclopropyl-1,2,4-oxadiazol-5-yl)bicyclo[2.2.2]octan-1-yl)methyl)-N-(3-(2-cyclopropyloxazol-5-yl)phenyl)cyclobutanecarboxamide], the EC50 came out at 138 nM. The EC50 values of the last two compounds are within 1.5-fold of each other.
The compound `O=C(C1CC(O)(C(F)(F)F)C1)N(CC12CCC(c3nc(C4CC4)no3)(CC1)CC2)c1cccc(-c2cnc(C3CC3)o2)c1` [Example 21, (1S,3S)—N-((4-(3-cyclopropyl-1,2,4-oxadiazol-5-yl)bicyclo[2.2.2]octan-1-yl)methyl)-N-(3-(2-cyclopropyloxazol-5-yl)phenyl)-3-hydroxy-3-(trifluoromethyl)cyclobutane-1-carboxamide] showed an EC50 of 80 nM.
Next, `O=C(C1CC(F)(F)C1)N(CC12CCC(c3nc(C4CC4)no3)(CC1)CC2)c1cccc(-c2cnc(C3CC3)o2)c1` [Example 22, N-((4-(3-cyclopropyl-1,2,4-oxadiazol-5-yl)bicyclo[2.2.2]octan-1-yl)methyl)-N-(3-(2-cyclopropyloxazol-5-yl)phenyl)-3,3-difluorocyclobutane-1-carboxamide]: 133 nM; `O=C(N(CC12CCC(c3nc(C4CC4)no3)(CC1)CC2)c1cccc(-c2cnc(C3CC3)o2)c1)C12CC(F)(C1)C2` [Example 23, N-((4-(3-cyclopropyl-1,2,4-oxadiazol-5-yl)bicyclo[2.2.2]octan-1-yl)methyl)-N-(3-(2-cyclopropyloxazol-5-yl)phenyl)-3-fluorobicyclo[1.1.1]pentane-1-carboxamide]: 72 nM; `O=C(C1CC(C(F)F)C1)N(CC12CCC(c3nc(C4CC4)no3)(CC1)CC2)c1cccc(-c2cnc(C3CC3)o2)c1` (stereo not drawn) [Example 24, N-((4-(3-cyclopropyl-1,2,4-oxadiazol-5-yl)bicyclo[2.2.2]octan-1-yl)methyl)-N-(3-(2-cyclopropyloxazol-5-yl)phenyl)-3-(difluoromethyl)cyclobutane-1-carboxamide]: 281 nM.
Consider `CCOc1cc(-c2cccc(N(CC34CCC(c5nc(C6CC6)no5)(CC3)CC4)C(=O)C34CC(F)(C3)C4)c2)no1` [Example 25, N-((4-(3-cyclopropyl-1,2,4-oxadiazol-5-yl)bicyclo[2.2.2]octan-1-yl)methyl)-N-(3-(5-ethoxyisoxazol-3-yl)phenyl)-3-fluorobicyclo[1.1.1]pentane-1-carboxamide], for which the midpoint of the response, the EC50, lay at 87 nM.
Under `CCCc1ncc(-c2cccc(N(CC34CCC(c5nc(C6CC6)no5)(CC3)CC4)C(=O)C34CC(F)(C3)C4)c2)o1` [Example 26, N-((4-(3-cyclopropyl-1,2,4-oxadiazol-5-yl)bicyclo[2.2.2]octan-1-yl)methyl)-3-fluoro-N-(3-(2-propyloxazol-5-yl)phenyl)bicyclo[1.1.1]pentane-1-carboxamide] stands 72 nM; under `CCCc1ncc(-c2cccc(N(CC34CCC(c5nc(C6CC6)no5)(CC3)CC4)C(=O)C3CC(F)(F)C3)c2)o1` [Example 27, N-((4-(3-cyclopropyl-1,2,4-oxadiazol-5-yl)bicyclo[2.2.2]octan-1-yl)methyl)-3,3-difluoro-N-(3-(2-propyloxazol-5-yl)phenyl)cyclobutane-1-carboxamide], 148 nM.
Next, `CCCc1ncc(-c2cccc(N(CC34CCC(c5nc(C6CC6)no5)(CC3)CC4)C(=O)C3CC(C(F)F)C3)c2)o1` (stereo not drawn) [Example 28, N-((4-(3-cyclopropyl-1,2,4-oxadiazol-5-yl)bicyclo[2.2.2]octan-1-yl)methyl)-3-(difluoromethyl)-N-(3-(2-propyloxazol-5-yl)phenyl)cyclobutane-1-carboxamide]: 248 nM.
Under `CCOC(=O)c1nc(-c2cccc(N(CC34CCC(c5nc(C6CC6)no5)(CC3)CC4)C(=O)C34CC(F)(C3)C4)c2)cs1` [Example 29, Ethyl 4-(3-(N-((4-(3-cyclopropyl-1,2,4-oxadiazol-5-yl)bicyclo[2.2.2]octan-1-yl)methyl)-3-fluorobicyclo[1.1.1]pentane-1-carboxamido)phenyl)thiazole-2-carboxylate] stands 1090 nM.
As for `O=C(N(CC12CCC(c3nc(C4CC4)no3)(CC1)CC2)c1cccc(-c2csc(CCl)n2)c1)C12CC(F)(C1)C2` [Example 30, N-(3-(2-(chloromethyl)thiazol-4-yl)phenyl)-N-((4-(3-cyclopropyl-1,2,4-oxadiazol-5-yl)bicyclo[2.2.2]octan-1-yl)methyl)-3-fluorobicyclo[1.1.1]pentane-1-carboxamide], it took 112 nM to reach a half-maximal effect (EC50).
Next, `CC(C)(O)c1nc(-c2cccc(N(CC34CCC(c5nc(C6CC6)no5)(CC3)CC4)C(=O)C34CC(F)(C3)C4)c2)cs1` [Example 31, N-((4-(3-cyclopropyl-1,2,4-oxadiazol-5-yl)bicyclo[2.2.2]octan-1-yl)methyl)-3-fluoro-N-(3-(2-(2-hydroxypropan-2-yl)thiazol-4-yl)phenyl)bicyclo[1.1.1]pentane-1-carboxamide]: 260 nM; `Cc1cc(C23CCC(CN(C(=O)C45CC(F)(C4)C5)c4cccc(-c5nc(C6CC6)no5)c4)(CC2)CC3)ccn1` [Example 32, N-(3-(3-cyclopropyl-1,2,4-oxadiazol-5-yl)phenyl)-3-fluoro-N-((4-(2-methylpyridin-4-yl)bicyclo[2.2.2]octan-1-yl)methyl)bicyclo[1.1.1]pentane-1-carboxamide]: 756 nM; `Cc1cc(C23CCC(CN(C(=O)C4CCC(F)(F)C4)c4cccc(-c5nc(C6CC6)no5)c4)(CC2)CC3)ccn1` (stereo not drawn) [Example 33, N-(3-(3-cyclopropyl-1,2,4-oxadiazol-5-yl)phenyl)-3,3-difluoro-N-((4-(2-methylpyridin-4-yl)bicyclo[2.2.2]octan-1-yl)methyl)cyclopentane-1-carboxamide]: 4320 nM.
For the compound `Cc1noc(C23CCC(CN(C(=O)C45CC(F)(C4)C5)c4cccc(-c5cnc(C6CCOCC6)o5)c4)(CC2)CC3)n1` [Example 34, 3-Fluoro-N-((4-(3-methyl-1,2,4-oxadiazol-5-yl)bicyclo[2.2.2]octan-1-yl)methyl)-N-(3-(2-(tetrahydro-2H-pyran-4-yl)oxazol-5-yl)phenyl)bicyclo[1.1.1]pentane-1-carboxamide], the response was half-maximal at 1520 nM (EC50). This EC50 is about 2.8-fold lower than that of the compound before.
